# Source: patent publication US20150284362A1, “CARBAZOLE-CONTAINING AMIDES, CARBAMATES, AND UREAS AS CRYPTOCHROME MODULATORS” (ReSet Therapeutics, Inc., priority 2014, published 2015)
# What was measured:
# [1] = system: core clock gene mRNAs in liver; assay: 24 hour gene expression study, liver mRNA by RT-qPCR, Balb/c mice; format: in vivo, mouse; conditions: 50 mg/kg PO BID, 7 doses
# Experimental: E.Z.N.A.® HP Total RNA Isolation Kits (R6812-01 and the protocol described in the Manual, Revised 2010) were utilized to prepare and isolate RNA from the liver samples. To prepare the RNA samples, 10-30 mg of sample was removed from RNA-Later and placed in a 1.5 ml microfuge tube. GTC lysis buffer (700 μl) was added to the tissue, which was homogenized with a rotor-stator homogenizer (e.g. Tissue-Tearor, Model #985370 BioSpec Products with 4.5 mm probe, Cat. #985370-04), and then centrifuged at full speed (≧13,000×g) for 5 minutes. The cleared supernatant was transferred by pipetting to a DNA Clearance Column Pre-inserted in a 2 mL Collection Tube. The assembled column was centrifuged at 13,000×g for 1 minute, and the flow-through was saved. An equal volume (700 μl) of 70% ethanol was added to the lysate and mixed. The sample was then applied to a HiBind RNA spin column placed into a 2 ml collection tube, which was centrifuged at 10,000×g for 60 seconds at room temperature. RNA Wash Buffer I (250 μl) was added by pipetting directly onto a new HiBind RNA column inserted in a 2 ml collection tube. The assembled column was centrifuged at 10,000×g for 60 seconds. The RNA column was placed into a new 2 ml collection tube. DNase I stock solution is pipetted (75 μl) directly onto the surface of the HiBind RNA resin in each column (Using DNAse Digestion with RNase Free DNase Set (E1091): for each HiBind RNA column, the DNase I stock solution was prepared as followed: E.Z.N.A.® DNase I Digestion Buffer 73.5 μl, RNase Free DNase I (20 Kunitz/μl) 1.5 μl=Total Volume 75 μl.). The column with bound RNA was incubated at room temperature (25-30° C.) for 15 minutes. RNA Wash Buffer I (500 μl) was added to the column and placed on a bench top for 2 minutes. After centrifuging at 10,000×g for 60 seconds, discarding the flow-through, 500 μl of RNA Wash Buffer II was added and centrifuged at 10,000×g for 60 seconds. Another 500 μl of RNA Wash Buffer II was added and the column assembly was centrifuged at 10,000×g for 60 seconds. The column was centrifuged for 2 minutes at maximum speed to completely dry the HiBind matrix. […]
# RediPlate 96 RiboGreen RNA Quantification Kit (Invitrogen) RediPlate standard curve was prepared by transferring 20 μl reconstituted RNA standard to a RediPlate well reconstituted in 180 μl RediPlate TE buffer. […] After transferring 5 μl to RediPlate well reconstituted in 195 μl TE buffer and incubating 10 min. at RT, Fluorescence Intensity of wells with standards and samples were read in a Tecan M200 with Excitation set at 480 nm and Emission set at 520 nm with the gain set to ˜70%. […] A standard curve was generated in GraphPad Prism and sample readings (unknowns) are interpolated via linear regression analysis, and the RNA sample concentrations were calculated. […]
# [2] = system: core clock gene mRNAs in liver; assay: Single dose at peak (ZT0) or nadir (ZT10) of Cry1, liver core clock gene mRNAs; format: in vivo, mouse; conditions: db/db mice; single dose 50 mg/kg at ZT0 or ZT10; liver 7.5 hours later
# Experimental: For compounds that interact directly with the core clock mechanism, the time of dosing may be critical for maximizing their effects. […] The former (ZT0) is coincident with the peak of Cry1 and Bmal1 protein in mouse liver and the latter (ZT10) corresponds to the approximate nadir of Cry1 and Bmal1. Liver tissue was taken 7.5 hours later for each, and the samples were examined for core clock gene mRNAs by RT-qPCR.
# db/db mice = assay: 7 day dosing, glucose metabolism, insulin and compound levels in db/db mouse model of type II diabetes; format: in vivo; conditions: 50 mg/kg PO QD 7 days
# Excerpt: (§1) Significance was accepted when p<0.05.
# C57/Bl6J DIO mice = assay: Increasing dosages of Compound 72 over 7 days in diet-induced obesity (DIO) mouse model; format: in vivo; conditions: 10, 30, 100 mg/kg PO QD 7 days
# Excerpt: Male C57/Bl6J DIO mice were obtained from The Jackson Laboratory (Sacramento, Calif.). […] Animals were accustomed to these conditions for at least 2 weeks before experimentation and used at approximately 24 weeks of age.
# as §1
# Male C57/Bl6J DIO mice were obtained from The Jackson Laboratory (Sacramento, Calif.). […] Animals were accustomed to these conditions for at least 2 weeks before experimentation and used at approximately 26 weeks of age.
structure (smiles),measurement,setting,value
"O=C1NCCN1CC(O)Cn1c2ccc(F)cc2c2cc(F)ccc21 (stereo not shown) [Compound 72, 1-(3-(3,6-difluoro-9H-carbazol-9-yl)-2-hydroxypropyl)imidazolidin-2-one]",Bmal1 mRNA in liver,[1]; at ZT8 and 32 hours after ZT0 vs vehicle,substantially increased
same,Per2 mRNA in liver,[1]; over 24 hours vs vehicle,suppressed
same,Cry1 mRNA in liver,[1]; vs vehicle,suppressed during its peak of expression during the dark period
same,Cry2 mRNA in liver (daytime peak),[1]; vs vehicle,strongly attenuated
same,"impact on core clock gene mRNAs in liver, dosing at peak vs nadir",[2],greater relative impact on the clock mRNAs at the peak compared to the nadir
same,OGTT glucose vs vehicle control group,db/db mice,lower than the vehicle control group
same,OGTT glucose excursion following a glucose load,C57/Bl6J DIO mice,reduction in glucose excursion
